How the values were obtained:
Assay in all cases: residual activity after MMTS incubation, coupled assay at […] nm
Type in all cases: biochemical
cTPI [1] = target: T1, cTPI (Arabidopsis thaliana, UniProt P48491); settings: covalent (C13, C218); 3 h incubation at room temperature, 0.184 nM enzyme, TEA pH 7.4, 10 mM EDTA
T1 construct: gene CTIMC; homodimer

pdTPI [2] = target: T2, pdTPI (Arabidopsis thaliana, UniProt Q9SKP6); settings: read-out: 50% of enzymatic activity
T2 construct: gene TIM; homodimer
Target sequence in this assay (Q9SKP6 60-315): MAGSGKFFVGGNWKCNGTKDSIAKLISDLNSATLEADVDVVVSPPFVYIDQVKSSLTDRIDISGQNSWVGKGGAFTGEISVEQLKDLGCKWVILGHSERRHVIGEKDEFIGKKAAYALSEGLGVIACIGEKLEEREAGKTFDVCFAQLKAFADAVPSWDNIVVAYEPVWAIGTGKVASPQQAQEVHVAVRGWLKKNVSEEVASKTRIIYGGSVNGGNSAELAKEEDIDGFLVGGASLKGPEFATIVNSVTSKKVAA

cTPI [3] = target: T3, cTPI (Arabidopsis thaliana, UniProt P48491, C218S); settings: read-out: MMTS concentration necessary to inhibit 50%
T3 construct: gene CTIMC; homodimer
T3 sequence (P48491 1-254 C218S): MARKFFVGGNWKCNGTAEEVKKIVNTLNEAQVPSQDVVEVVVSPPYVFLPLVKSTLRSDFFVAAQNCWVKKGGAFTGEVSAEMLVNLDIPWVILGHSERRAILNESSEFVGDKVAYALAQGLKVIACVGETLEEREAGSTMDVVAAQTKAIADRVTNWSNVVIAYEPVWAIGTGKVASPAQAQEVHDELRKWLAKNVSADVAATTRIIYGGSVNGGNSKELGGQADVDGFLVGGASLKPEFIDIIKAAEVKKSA

cTPI [4] = target: T4, cTPI (Arabidopsis thaliana, UniProt P48491, C13S)
T4 construct: gene CTIMC; homodimer
T4 sequence (P48491 whole entry C13S): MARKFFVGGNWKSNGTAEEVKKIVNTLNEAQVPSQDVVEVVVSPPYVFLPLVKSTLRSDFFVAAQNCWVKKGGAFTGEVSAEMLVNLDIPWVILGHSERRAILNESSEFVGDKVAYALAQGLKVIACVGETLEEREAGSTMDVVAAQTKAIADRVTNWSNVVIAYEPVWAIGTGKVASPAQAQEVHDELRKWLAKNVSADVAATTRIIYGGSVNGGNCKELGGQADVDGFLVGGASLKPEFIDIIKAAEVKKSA

pdTPI [5] = target: T2, pdTPI; settings: covalent (cysteine); 3 h incubation at room temperature, 0.184 nM enzyme, TEA pH 7.4, 10 mM EDTA; MMTS 0-50 µM
Target sequence in this assay (Q9SKP6 60-315 C148S): as the sequence (Q9SKP6 60-315) above, with C89S counted along it

T1 sequence (P48491 whole entry): as the sequence (P48491 whole entry C13S) above, with S13C counted along it

- % decrease of activity at 31.25 nM (cTPI [1]): 90%
- IC50 (pdTPI [2]): > 10000 nM
- IC50 (cTPI [3]): 125 nM
- remaining activity at 0.125 µM (cTPI [4]): 70%
Structure (SMILES): CSS(C)(=O)=O [MMTS]
- % activity remaining (dose curve) (pdTPI [5]): Mutation pdTPI-C89S is more susceptible to MMTS inhibition

— PMC5138414, “Structural Basis for Redox Regulation of Cytoplasmic and Chloroplastic Triosephosphate Isomerases from Arabidopsis thaliana” (Frontiers in Plant Science, 2016)
